Laboratory results as given in patent publication US20100256214A1, “EPH RECEPTOR LIGANDS AND METHODS OF USE” (Burnham Institute for Medical Research, priority 2009, published 2010).
pKd: −log10 of the molar value.

Experiments:
EphA2 = EphA2 tyrosine phosphorylation in COS7 cells; format: cell-based; conditions: for tyrosine phosphorylation of endogenous EphA2: COS7 cells stimulated with ephrin-A1 Fc
Experimental: (§1) FIGS. 6A-6F. A. HT22 neuronal cells pretreated with the indicated concentrations of compounds 1 or 2 for 15 min were stimulated with 0.5 μg/mL ephrin-A5 Fc (+) or Fc as a control (−) for 20 min in the continued presence of the compounds. EphA4 immunoprecipitates were probed with anti-phosphotyrosine antibody (PTyr) and reprobed for EphA4. C indicates immunoprecipitations performed with control antibodies from non-immunized rabbits. […] Error bars represent the standard error from 4 experiments for compound 1 and 3 experiments for compound 2. […] C. COS7 cells pretreated with the indicated concentrations of compounds 1 or 2 for 15 min were stimulated with 0.1 μg/mL ephrin-A1 Fc or Fc as a control in the continued presence of the compounds. EphA2 immunoprecipitates were probed with anti-phosphotyrosine antibody (PTyr) and reprobed for EphA2. C indicates immunoprecipitations performed with control antibodies. […] Error bars represent the standard error from 2 experiments. Statistical analyses were performed as in (B). HUVE cells were left unstimulated or stimulated with TNFα for 2 hours in the presence of 400 μM compound 1. Duplicate untreated samples are shown. C indicates immunoprecipitations performed with control antibodies. EphA2 immunoprecipitates were probed with anti-phosphotyrosine antibody (PTyr) and reprobed for EphA2. Levels of EphA2 phosphorylation quantified from immunoblots and normalized to the amount of immunoprecipitated EphA2 were also performed. […] The same protocol described in (C) was used, except that COS7 cells were stimulated with 0.5 μg/mL of ephrin-B2 Fc and the EphB2 receptor was immunoprecipitated. F. COS7 cells pretreated with the indicated concentrations of compounds 1 or 2 were stimulated with EGF (+) or left unstimulated (−). Lysates were probed with anti-phosphotyrosine antibody (PTyr) and reprobed for the EGF receptor.
(§2) Measurement of Receptor Tyrosine Phosphorylation in Cells—HT22 neuronal cells, which endogenously express EphA4, are derived from immortalized mouse hippocampal neurons (Li et al. (1997) Neuron 19(2), 453-463). COST cells, which endogenously express EphA2, EphB2 and the EGF receptor (EGFR), were obtained from ATCC. Both cell lines were grown in Dulbecco's Modified Eagle's Medium (DMEM) (Mediatech, Inc, Herndon, Va.) with 10% fetal bovine serum (FBS) (Hyclone, Logan, Utah) and Pen/Strep. For EphA4 immunoprecipitations, HT22 cells were serum-starved overnight in 0.5% FBS in DMEM and incubated for 15 min with the compounds or DMSO as a control. The cells were then stimulated with 0.5 μg/mL ephrin-A5 Fc, ephrin-A4 Fc or Fc for 20 min in the continued presence of the compounds. […] The protein concentration was calculated using the BCA protein assay kit (Pierce Biotecnology, Rockford, Ill.). […]

[1] = biological target: T1, EphA4 ligand-binding domain (Homo sapiens, UniProt P54764, C204A); assay: Isothermal titration calorimetry with EphA4 ligand-binding domain; conditions: ITC; for Ka / Kb: 10 mM phosphate buffer pH 6.3, 25° C.
T1 construct: His-tagged fusion partner of modified pET32a (N, cleaved yes); made in house; host or cells: E. coli Rosetta-gami (DE3)
Experimental: The free Cys176 in this extra tail was mutated to Ala by use of the site-directed mutagenesis kit (Stratagene) to avoid the formation of non-native disulfide bridges.
Titrations were conducted in 10 mM phosphate buffer (pH 6.3) at 25° C. […] The powders of the two compounds were weighted and then dissolved in 10 mM phosphate buffer with the final pH values adjusted to 6.3. The EphA4 receptor at a concentration of 70 μM was placed in a 1.8 ml sample cell while the compounds at a concentration of 2 mM were loaded into a 300 μL syringe. The samples were degassed for 15 min to remove bubbles before the titrations were initiated. Control experiments with the same parameter settings were also performed for the two compounds without EphA4, to subtract the effects due to sample dilution. To obtain thermodynamic binding parameters, the titration data after subtracting the values obtained from the control experiments were fit to a single binding site model using the built-in software ORIGIN version 5.0 (Microcal Software Inc.).

EphA4 = EphA4 (Mus musculus, UniProt Q03137); assay: EphA4 tyrosine phosphorylation in HT22 neuronal cells; format: cell-based; parameters: tyrosine phosphorylation of endogenous EphA4 in HT22 neuronal cells stimulated with ephrin-A5 Fc; endogenous in cells; host or cells: HT22 mouse hippocampal neuronal cells; conditions: for ephrin-induced EphA4 tyrosine phosphorylation: HT22 cells stimulated with ephrin-A5 Fc; for EphA4 phosphorylation: cells stimulated with ephrin-A4
Experimental: as §1, §2

T1 sequence (P54764 29-209 C204A): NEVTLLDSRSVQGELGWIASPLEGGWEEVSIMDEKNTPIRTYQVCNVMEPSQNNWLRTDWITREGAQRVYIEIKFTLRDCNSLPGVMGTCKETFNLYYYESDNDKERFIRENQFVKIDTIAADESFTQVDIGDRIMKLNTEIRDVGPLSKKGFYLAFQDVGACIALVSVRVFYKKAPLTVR
Sequence of EphA4 (Q03137 20-986): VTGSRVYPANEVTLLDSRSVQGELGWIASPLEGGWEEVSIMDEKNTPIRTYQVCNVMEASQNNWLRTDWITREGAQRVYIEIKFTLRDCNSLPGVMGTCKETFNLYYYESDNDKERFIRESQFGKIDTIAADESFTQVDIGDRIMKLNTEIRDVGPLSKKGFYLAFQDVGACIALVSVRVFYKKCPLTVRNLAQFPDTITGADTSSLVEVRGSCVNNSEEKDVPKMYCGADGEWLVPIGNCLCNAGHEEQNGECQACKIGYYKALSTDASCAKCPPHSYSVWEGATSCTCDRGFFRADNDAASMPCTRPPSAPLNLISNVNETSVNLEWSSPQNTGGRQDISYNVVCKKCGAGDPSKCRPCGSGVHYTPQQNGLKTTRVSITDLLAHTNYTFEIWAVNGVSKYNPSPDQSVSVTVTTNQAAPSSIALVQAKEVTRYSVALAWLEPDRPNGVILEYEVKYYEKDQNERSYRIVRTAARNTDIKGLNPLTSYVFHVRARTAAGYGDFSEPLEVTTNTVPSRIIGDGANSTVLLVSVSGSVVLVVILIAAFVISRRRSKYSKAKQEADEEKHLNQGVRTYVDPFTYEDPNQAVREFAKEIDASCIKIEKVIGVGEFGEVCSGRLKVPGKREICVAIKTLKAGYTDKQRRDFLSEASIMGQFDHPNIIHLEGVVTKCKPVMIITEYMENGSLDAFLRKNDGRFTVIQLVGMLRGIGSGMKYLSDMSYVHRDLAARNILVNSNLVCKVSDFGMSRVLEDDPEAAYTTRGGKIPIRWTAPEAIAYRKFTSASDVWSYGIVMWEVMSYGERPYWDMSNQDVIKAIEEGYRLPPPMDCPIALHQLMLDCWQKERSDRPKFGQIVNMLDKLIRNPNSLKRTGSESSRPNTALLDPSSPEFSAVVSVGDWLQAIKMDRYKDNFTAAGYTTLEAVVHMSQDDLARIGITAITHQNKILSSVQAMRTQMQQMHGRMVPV

Structure (SMILES)	ephrin-dependent degradation of EphA2 (EphA2)	tyrosine phosphorylation of endogenous EphA2 (EphA2)	pKd [1]	Stoichiometry [1]	ΔH, enthalpy change of binding [1]	ΔS [1] [cal/mol*K]	Ka [1] [M⁻¹]	Kb [1] [µM]	ephrin-induced EphA4 tyrosine phosphorylation (EphA4)	EphA4 phosphorylation (EphA4)
Cc1ccc(C)n1-c1ccc(C(=O)O)c(O)c1 [compound 1, 4-(2,5-dimethyl-pyrrol-1-yl)-2-hydroxy-benzoic acid]	prevented	inhibited	4.69	1.000 ± 0	−1,001 cal	18.11	48930	20.4	blocked	did not inhibit
Cc1ccc(C)n1-c1ccc(O)c(C(=O)O)c1 [compound 2, 5-(2,5 dimethyl-pyrrol-1-yl)-2-hydroxy-benzoic acid]	prevented	inhibited	4.58	1.000 ± 0	-237 cal	20.15	37850	26.4	blocked	did not inhibit
